# Source: PubChem BioAssay AID624438 (The Scripps Research Institute Molecular Screening Center, 2012)
# Active and inactive are the calls of the source.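 Rule for the calls: active = IC50 below 50 µM against the phosphatase PP2C-alpha; inactive = IC50 at or above 50 µM.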
# Target: Protein phosphatase 1A (Homo sapiens) (UniProt P35813)
# Experiment: inhibition of PP2C-alpha OMFP dephosphorylation – biochemical, fluorescence, OMFP substrate, round 5, selectivity assay for PP5 inhibitor project, late-stage follow-up (AID 624438)
# Conditions: purified MBP-PP2C-alpha
# Sequence of Protein phosphatase 1A (Homo sapiens) (P35813 whole entry, looked up): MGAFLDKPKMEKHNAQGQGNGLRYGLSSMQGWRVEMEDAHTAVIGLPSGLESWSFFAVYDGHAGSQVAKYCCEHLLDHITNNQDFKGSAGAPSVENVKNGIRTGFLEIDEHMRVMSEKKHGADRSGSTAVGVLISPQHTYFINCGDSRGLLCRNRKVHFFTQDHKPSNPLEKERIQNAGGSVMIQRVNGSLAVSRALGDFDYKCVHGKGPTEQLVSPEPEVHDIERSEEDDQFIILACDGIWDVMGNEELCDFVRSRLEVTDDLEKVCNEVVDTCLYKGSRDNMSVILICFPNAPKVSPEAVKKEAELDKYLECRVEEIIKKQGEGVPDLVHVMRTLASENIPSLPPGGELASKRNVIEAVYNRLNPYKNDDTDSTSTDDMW
structure (smiles),measurement,value
CC(C)Oc1ccccc1-c1n[nH]nc1C(=O)O,IC50,> 1000 µM (inactive)
